*1 amine or outer side, *2 acyl side, *3 side chain or, on linkers, in order; H or OH if unused. Where a SMILES comes first, the peptide text is derived from it. [ ]: non-standard residue; d: D form. The star is where a group is joined. Hyp = O=C(O)[C@@H]1C[C@@H](O)CN1; βNA = c1ccc2cc(N*)ccc2c1; 2Abz = Nc1ccccc1C(=O)O; CO = O=C([*:1])[*:2]; Bn = c1ccc(C*)cc1
Legend:
[1] = biological target: T1, gastrin receptor (Cavia porcellus, UniProt H0VZC5); test: Gastrin Receptor Binding Assay; settings: guinea pig gastric glands, displacement of 125I-(Leu-15)-Gastrin, 25° C., 30 minutes; read-out: IC50 Gastrin (In Vitro Binding Data)
T1 construct: The fundic mucosa is gently scraped off the submucosa; from tissue; host or cells: guinea pig (Hartley) fundic mucosa gastric glands, collagenase-dispersed
T1 sequence (H0VZC5 1-426): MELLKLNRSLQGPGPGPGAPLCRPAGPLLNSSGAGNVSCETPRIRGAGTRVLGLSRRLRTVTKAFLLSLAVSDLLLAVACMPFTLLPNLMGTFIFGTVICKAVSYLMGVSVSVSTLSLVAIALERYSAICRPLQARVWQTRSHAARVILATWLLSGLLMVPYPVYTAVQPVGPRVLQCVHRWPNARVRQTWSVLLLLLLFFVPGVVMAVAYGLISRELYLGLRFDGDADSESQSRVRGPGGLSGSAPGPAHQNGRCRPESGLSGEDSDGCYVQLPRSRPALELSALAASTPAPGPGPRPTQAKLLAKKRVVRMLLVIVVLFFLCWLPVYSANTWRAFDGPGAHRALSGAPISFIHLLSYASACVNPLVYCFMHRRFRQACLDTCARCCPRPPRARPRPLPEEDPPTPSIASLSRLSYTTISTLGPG
Description: (§1) The effectiveness of the compounds of this invention as gastrin or cholecystokinin antagonists may be determined by the following pharmacologic tests which evaluate the gastrin and cholecystokinin antagonist activity of said compounds. The CCK-A Receptor Binding Assay and the Gastrin Receptor Binding Assay are standard test procedures. The CCK-A Receptor Binding Assay is essentially that of Chang, et al., "Characterization of the Binding of [^3 H]-(±)-L-364,718: A New Potent, Nonpeptide Cholecystokinin Antagonist Radioligand Selective for Peripheral Receptors", Molecular Pharmacology, 30: 212-217 (1986). The Gastrin Receptor Binding Assay is essentially that of Chang, et al., "Characterization of [^3 H]Pentagastrin Binding in Guinea Pig Gastric Glands - An Alternative Convenient Ligand for Receptor Binding Assay", Biochemical and Biophysical Research Communications, 134 (2): 895-899 (1986).
Gastrin Receptor Binding Assay
Phosphate Buffered Saline (PBS): 8.743 g NaCl, 523 mg K2 HPO4 and 76.8 mg NaH2 PO4 is dissolved in 900 ml of deionized water, the pH of the solution is adjusted to 7.3 with 5N NaOH, then Q.S. to 1 L.
Buffer A: Powdered Basal Medium Eagle (BME) containing Earle's Salts, L-glutamine and 25 mM HEPES without bicarbonate (Sigma Cat. number B 4391) sufficient to make 3 liters is stirred into 2.7 L of deionized water, […] sodium bicarbonate is added and the mixture stirred to give dissolution. The solution is then equilibrated with 95% O2 /5% CO2 gas followed by titration to a pH of 7.4 with NaOH, then Q.S. to 3 L.
Buffer B: 18.75 mg of collagenase A and 25 mg of pH neutralized BSA is dissolved in 25 ml of Buffer A.
Buffer C: 0.3 g of BSA is dissolved in 300 ml of Buffer A.
Buffer D: 6.25 mg Bacitracin is dissolved in 25 ml of Buffer A.
A guinea pig (Hartley Strain) weighing 150-200 grams, is sacrificed by CO2 asphyxiation and the stomach immediately excised, cut along the greater curvature, cleaned out and immediately immersed in a beaker containing cold PBS, pH 7.3, to insure thorough cleaning. The fundic mucosa is gently scraped off the submucosa and added to a preweighed 50 ml plastic centrifuge tube containing 30 ml of cold Buffer A. The weight of the plastic centrifuge tube containing the buffer is then subtracted from the combined weight of the mucosa and the buffer-containing tube to give the weight of the mucosa. The weight of the mucosa thus determined is recorded for later calculations. The mucosa is then washed twice in Buffer A. After the final wash, the tissue is minced and is placed in a 100-ml glass beaker containing about 1.0 ml of Buffer A, and washed twice again by repeated centrifugation at 50Xg for 5 minutes each and aspiration of supernatant. The washed tissue fragments are then added to a glass Erlenmeyer flask containing 25 ml of Buffer B and incubated in a Dubnoff shaking water bath at 37° C. for 30 minutes in a 95% O2 /5% CO2 atmosphere. After the incubation, the digested tissue fragments in the Collegenase-buffer solution are triturated, filtered through a 200-micron nylon mesh and centrifuged at 50Xg for 5 minutes. The supernatant is aspirated and discarded, the tissue washed 2X in Buffer C, resuspended in same buffer, incubated in a 37° C water bath in an atmosphere of 95% O2 /5% CO2 for 5 minutes, and centrifuged. The pelleted glands are suspended in Buffer D at a desired concentration of 2×10^5 glands/ml to use in the receptor binding assay.
Assay Buffer: Buffer A as above
^125 l-(Leu-15)-Gastrin: 100 microcurie dissolved in 2.0 ml of Buffer A to make 50 microcurie/ml; stored in 50 μl aliquots under Argon at -70° C.
^125 I-(15-methionine)-Human Gastrin: 50 microcurie/ml in deionized water, stored in 50 μl aliquots as above.
(Leu 15)-Gastrin 17:5.2 mg of (Leu-15)- Gastrin is dissolved in 10 ml of Buffer A and stored in 30 μl aliquots. At the time of assay a 1:10 dilution is made and 10 μl/assay tube is used. […]

[2] = biological target: T2, CCK-A receptor (Rattus norvegicus, UniProt P30551); test: CCK-A Receptor Binding Assay; settings: rat pancreas membranes, displacement of 3H-L-364,718 (0.2 nM), 37° C., 30 minutes; read-out: IC50 CCK-A (In Vitro Binding Data)
T2 construct: from tissue; host or cells: rat (Sprague-Dawley) pancreas membrane homogenate
T2 sequence (P30551 1-444): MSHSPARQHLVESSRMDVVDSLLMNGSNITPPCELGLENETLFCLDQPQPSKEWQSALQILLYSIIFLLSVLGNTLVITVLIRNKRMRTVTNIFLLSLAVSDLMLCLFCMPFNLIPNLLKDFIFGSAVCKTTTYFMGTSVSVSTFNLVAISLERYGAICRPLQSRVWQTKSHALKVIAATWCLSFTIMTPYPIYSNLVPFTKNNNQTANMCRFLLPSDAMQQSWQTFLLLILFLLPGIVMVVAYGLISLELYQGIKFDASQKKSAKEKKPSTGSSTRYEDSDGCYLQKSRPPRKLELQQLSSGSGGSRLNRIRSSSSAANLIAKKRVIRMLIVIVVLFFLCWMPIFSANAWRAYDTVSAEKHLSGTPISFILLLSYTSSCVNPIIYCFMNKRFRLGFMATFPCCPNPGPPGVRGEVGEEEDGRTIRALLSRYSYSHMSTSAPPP
Description: as §1
CCK-A Receptor Binding Assay
Wash Buffer (for use with Brandel Cell Harvester):
30 liters (L) of 50 mM Tris, pH 7.7: Dissolve 1 81.7 g Tris base in 4 L deionized water at room temperature. Adjust pH to 7.7 with 6N HCl and Q.S. to 30 L.
50 mM Tris-Cl, 5 mM MgCl2, 5 mM dithiothreitol, 0.14 mg/ml bacitracin, and 2 mg/ml bovine serum albumin (BSA).
1 liter of 5X stock buffer:
30.28 g Tris base per 800 ml deionized water, 5.08 g MgCl2 ·6H20, pH to 7.7 at room temperature with 6N HCl and Q.S. to 1 liter, store at 4° C.
250 ml working buffer (kept on ice):
50 ml of 5X stock buffer 0.1928 g dithiothreitol (5 mM), 35 mg bacitracin (0.14 mg/ml), and 0.5 g BSA (2mg/ml).
Unlabeled L-364,718 (nonpeptide ligand):
Unlabeled L-364,718 (N-(2,3-dihydro-1-methyl-2-oxo-5-phenyl-1H-1,4-benzodiazepin-3-yl)-1H-indole-2-carboxamide) (300 nM final concentration) is used to define nonspecific binding. A […] solution is made in absolute ethanol and stored at -70° C. Aliquots are diluted 100-fold in the assay.
A Sprague-Dawley rat is sacrificed by asphyxiation with carbon dioxide and the pancreas removed. The tissue is immersed in cold wash buffer and carefully trimmed of fat, connective tissue, blood vessels, blotted and weighed. The tissue is homogenized in a Sorvall SS-34 centrifuge tube in 50 volumes of wash buffer using a Polytron at setting 7 for 15 seconds. The tissue is centrifuged (Sorvall SS-34) at 19,000 rpm for 10 min. The supernatant is poured off and the pellet resuspended in sufficient buffer to obtain a concentration of 40 mg tissue wet weight/mi. Separate aliquots (2.3ml) are placed in each of 8 centrifuge tubes and centrifuged as before. The supernatants are poured off and the pellets stored at -70° C. Stored pellets are sufficient for the assay of 160 tubes and are stable for 1-2 months.
During the assay the stored membranes are resuspended in 40 ml of assay buffer by scraping the pellet off the wall of the centrifuge tube and washing it into a teflon-glass homogenizer. Membranes are resuspended by 5 passes with the teflon pestle and the membranes stored on ice until ready for use.
Preparation of Compounds:
Compounds of the present invention to be tested are prepared in DMSO (dimethyl sulfoxide) or in assay buffer. The majority of compounds of the present invention active as CCK antagonists generally require DMSO for complete solubility. Approximately 2-3 mg of compound is weighed directly into a 13×100 mm test tube and sufficient DMSO added to obtain a working stock solution at a concentration 100 fold greater than the highest concentration being tested in the assay. A total of 10 μl of each concentration of drug is added into a final volume of 1 ml to yield a 100 fold dilution of the working stock solution. Control binding tubes ("totals and nonspecifics") are also treated with 10 μl DMSO.
^3 H-L-364,718 is obtained from New England Nuclear (Cat. #971) and is used as supplied. […]

IC50 [1]	IC50 [2]	SMILES
> 30 µM	37 µM	Cc1cccc(NC(=O)N2CCC[C@@H]2C(=O)N2CCc3c([nH]c4ccccc34)C2)c1 [Example 5, 2-[N-(3-methyl)phenylcarbamoyl-D-prolyl]-1,2,3,4-tetrahydro-9H-pyrido[3,4-b]indole]
10.3 µM	7.3 µM	O=C([C@H]1CCCN1C(=O)Nc1ccc2ccccc2c1)N1CCc2c([nH]c3ccccc23)C1 [Example 4, 2-(N-naphth-2-ylcarbamoyl-D-prolyl)-1,2,3,4-tetrahydro-9H-pyrido[3,4-b]indole]
> 300 µM	30 µM	Cc1cccc(NC(=O)N2c3ccccc3C[C@H]2C(=O)N2CCc3c([nH]c4ccccc34)C2)c1 [Example 3, 2-[(N-(3-methyl)phenylcarbamoylindolin-2(S)-yl)carbonyl]-1,2,3,4-tetrahydro-9H-pyrido[3,4-b]indole]
0.2 µM		O=C(O)c1ccccc1NC(=O)[C@@H]1CCCN1C(=O)[C@@H]1C[C@@H](OCc2ccccc2)CN1C(=O)Nc1cccc2ccccc12 [Example 11, 2-[(N-(4(R)benzyloxy-N-naphth-1-ylcarbamoyl-L-prolyl)-L-prolyl)amino]benzoic acid]
120 µM	15 µM	COc1ccc(NC(=O)N2C[C@H](OCc3ccccc3)C[C@H]2C(=O)N2CCc3c([nH]c4ccccc34)C2)cc1 [Example 2, 2-[(N-(4-methoxy)phenylcarbamoyl-4(R)-benzyloxy)-L-prolyl]-1,2,3,4-tetrahydro-9H-pyrido[3,4-b]indole]
> 30 µM	37 µM	Cc1cccc(NC(=O)N2CCC[C@H]2C(=O)N2CCc3c([nH]c4ccccc34)C2)c1 [Example 6, 2-[N-(3-methyl)phenylcarbamoyl-L-prolyl]-1,2,3,4-tetrahydro-9H-pyrido[3,4-b]indole]
2.6 µM	3 µM	Cc1cccc(NC(=O)N2C[C@H](OCc3ccccc3)C[C@H]2C(=O)N[C@H](CC(C)C)C(=O)N[C@H](CC(=O)O)C(N)=O)c1 [Example 7]
0.13 µM		O=C(O)c1ccccc1NC(=O)[C@@H]1CCCN1C(=O)[C@@H]1C[C@@H](OCc2ccccc2)CN1C(=O)Nc1ccc2ccccc2c1 [Example 9, 2-[(N-(4(R)-benzyloxy-N-naphth-2-ylcarbamoyl-L-prolyl)-L-prolyl)amino]benzoic acid] ({βNA-CO}-[Hyp](Bn)-Pro-[2Abz]-OH)

SMILES	IC50 [1]	IC50 [2]
Cc1cccc(NC(=O)N2C[C@H](OCc3ccccc3)C[C@H]2C(=O)N2CCc3c([nH]c4ccccc34)C2)c1 [Example 1, 2-[(N-(3-methyl)phenylcarbamoyl-4(R)-benzyloxy)-L-prolyl]-1,2,3,4-tetrahydro-9H-pyrido[3,4-b]indole]	> 300 µM	9 µM

Reference: patent publication US5340801A, “Compounds having cholecystokinin and gastrin antagonistic properties” (Rhone-Poulenc Rorer Pharmaceuticals Inc., priority 1991, dated 1994)
